Test results from ChEMBL document CHEMBL4118122, “Identification and biological evaluation of thiazole-based inverse agonists of RORγt” (Bioorg Med Chem Lett, 2018).
≈ marks a conversion by molar mass, not a printed value.

Legend:
[1] = target: T1, PXR (NR1I2) (Homo sapiens, UniProt O75469); experiment: […] at PXR LBD (unknown origin) expressed in HEK293 cells […] at 1 uM after 16 hrs by luciferase reporter gene assay relative to rifampicin; assay type: ADME, cell-based; conditions: HEK293 cells expressing PXR LBD, read-out: Efficacy
T1 sequence (O75469 whole entry): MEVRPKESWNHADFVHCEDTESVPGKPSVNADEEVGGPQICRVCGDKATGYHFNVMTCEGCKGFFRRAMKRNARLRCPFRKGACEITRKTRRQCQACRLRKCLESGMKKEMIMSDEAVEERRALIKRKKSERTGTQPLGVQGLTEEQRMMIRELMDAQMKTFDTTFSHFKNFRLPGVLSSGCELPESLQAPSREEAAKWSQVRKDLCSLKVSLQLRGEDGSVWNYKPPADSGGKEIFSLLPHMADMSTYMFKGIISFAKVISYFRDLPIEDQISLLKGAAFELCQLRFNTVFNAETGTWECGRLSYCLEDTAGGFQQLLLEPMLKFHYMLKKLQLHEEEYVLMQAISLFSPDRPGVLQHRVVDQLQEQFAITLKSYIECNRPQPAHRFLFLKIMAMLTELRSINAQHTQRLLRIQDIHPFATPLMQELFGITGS

[2] = target: T1, PXR (NR1I2); experiment: […] at PXR LBD (unknown origin) expressed in HEK293 cells […] at 5 uM after 16 hrs by luciferase reporter gene assay relative to rifampicin; assay type: ADME, cell-based; conditions: HEK293 cells expressing PXR LBD, read-out: Efficacy
[3] = target: T1, PXR (NR1I2); experiment: […] at PXR LBD (unknown origin) expressed in HEK293 cells […] at 10 uM after 16 hrs by luciferase reporter gene assay relative to rifampicin; assay type: ADME, cell-based; conditions: HEK293 cells expressing PXR LBD, read-out: Efficacy
[4] = target: Cytochrome P450 2C9 (Homo sapiens, UniProt P11712); experiment: Inhibition of CYP2C9 (unknown origin); assay type: ADME
Sequence of Cytochrome P450 2C9 (P11712 whole entry): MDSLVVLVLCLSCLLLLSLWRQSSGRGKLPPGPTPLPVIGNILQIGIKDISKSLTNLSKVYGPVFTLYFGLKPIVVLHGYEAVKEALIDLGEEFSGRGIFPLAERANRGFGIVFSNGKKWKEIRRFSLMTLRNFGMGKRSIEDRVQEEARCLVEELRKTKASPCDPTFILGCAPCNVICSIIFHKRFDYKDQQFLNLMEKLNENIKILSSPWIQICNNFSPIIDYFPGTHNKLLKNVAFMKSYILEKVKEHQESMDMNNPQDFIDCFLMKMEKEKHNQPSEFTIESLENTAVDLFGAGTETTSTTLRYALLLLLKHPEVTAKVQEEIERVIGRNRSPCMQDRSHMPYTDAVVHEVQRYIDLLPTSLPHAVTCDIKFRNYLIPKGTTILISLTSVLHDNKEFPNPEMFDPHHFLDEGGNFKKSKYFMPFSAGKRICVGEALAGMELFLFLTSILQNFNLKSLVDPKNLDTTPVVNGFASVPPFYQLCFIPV

[5] = target: T2, Cytochrome P450 1A2 (Homo sapiens, UniProt P05177); experiment: Inhibition of CYP1A2 (unknown origin); assay type: ADME
T2 sequence (P05177 whole entry): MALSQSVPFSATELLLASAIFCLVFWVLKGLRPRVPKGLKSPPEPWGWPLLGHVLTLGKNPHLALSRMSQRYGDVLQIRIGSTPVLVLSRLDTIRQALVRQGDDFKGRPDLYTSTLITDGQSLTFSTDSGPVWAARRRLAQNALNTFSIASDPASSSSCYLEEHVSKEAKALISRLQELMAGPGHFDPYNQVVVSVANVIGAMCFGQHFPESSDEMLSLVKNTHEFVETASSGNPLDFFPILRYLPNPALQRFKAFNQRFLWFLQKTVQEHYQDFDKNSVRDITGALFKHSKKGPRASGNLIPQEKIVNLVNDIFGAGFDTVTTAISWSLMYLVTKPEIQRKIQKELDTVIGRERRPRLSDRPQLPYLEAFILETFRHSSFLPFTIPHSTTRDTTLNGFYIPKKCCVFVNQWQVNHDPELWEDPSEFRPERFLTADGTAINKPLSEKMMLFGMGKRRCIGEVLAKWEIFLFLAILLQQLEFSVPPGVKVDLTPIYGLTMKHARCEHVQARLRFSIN

[6] = target: Cytochrome P450 3A4 (Homo sapiens, UniProt P08684); experiment: Inhibition of CYP3A4 (unknown origin); assay type: ADME
Sequence of Cytochrome P450 3A4 (P08684 whole entry): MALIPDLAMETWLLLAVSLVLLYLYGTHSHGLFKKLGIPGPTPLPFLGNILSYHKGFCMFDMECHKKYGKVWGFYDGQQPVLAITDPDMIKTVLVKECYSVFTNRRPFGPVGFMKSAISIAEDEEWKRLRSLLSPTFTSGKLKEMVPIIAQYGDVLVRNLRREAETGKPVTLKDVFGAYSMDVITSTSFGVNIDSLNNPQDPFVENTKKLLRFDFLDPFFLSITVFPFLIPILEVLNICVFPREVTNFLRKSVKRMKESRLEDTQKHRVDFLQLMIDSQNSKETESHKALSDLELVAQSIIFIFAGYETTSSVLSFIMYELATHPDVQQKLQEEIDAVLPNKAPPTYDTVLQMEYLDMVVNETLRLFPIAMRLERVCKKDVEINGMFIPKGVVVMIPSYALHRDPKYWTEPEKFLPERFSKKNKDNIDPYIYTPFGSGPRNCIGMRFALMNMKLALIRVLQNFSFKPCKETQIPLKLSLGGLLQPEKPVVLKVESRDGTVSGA

[7] = target: T3, Cytochrome P450 2C8 (Homo sapiens, UniProt P10632); experiment: Inhibition of CYP2C8 (unknown origin); assay type: ADME
T3 sequence (P10632 whole entry): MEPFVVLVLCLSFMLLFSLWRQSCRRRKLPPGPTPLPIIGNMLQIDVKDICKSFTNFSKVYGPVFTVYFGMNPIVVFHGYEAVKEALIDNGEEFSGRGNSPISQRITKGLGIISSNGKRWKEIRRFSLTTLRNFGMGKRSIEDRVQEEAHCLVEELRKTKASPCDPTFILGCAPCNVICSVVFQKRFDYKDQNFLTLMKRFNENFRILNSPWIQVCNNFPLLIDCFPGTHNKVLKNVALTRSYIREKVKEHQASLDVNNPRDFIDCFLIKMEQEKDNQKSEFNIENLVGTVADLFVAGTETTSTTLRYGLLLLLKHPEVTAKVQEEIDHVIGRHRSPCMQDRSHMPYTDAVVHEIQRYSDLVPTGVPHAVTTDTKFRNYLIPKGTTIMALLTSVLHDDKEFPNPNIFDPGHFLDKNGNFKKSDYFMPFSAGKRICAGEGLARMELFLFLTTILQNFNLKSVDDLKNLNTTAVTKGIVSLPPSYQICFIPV

[8] = target: Cytochrome P450 2D6 (Homo sapiens, UniProt P10635); experiment: Inhibition of CYP2D6 (unknown origin); assay type: ADME
Sequence of Cytochrome P450 2D6 (P10635 whole entry): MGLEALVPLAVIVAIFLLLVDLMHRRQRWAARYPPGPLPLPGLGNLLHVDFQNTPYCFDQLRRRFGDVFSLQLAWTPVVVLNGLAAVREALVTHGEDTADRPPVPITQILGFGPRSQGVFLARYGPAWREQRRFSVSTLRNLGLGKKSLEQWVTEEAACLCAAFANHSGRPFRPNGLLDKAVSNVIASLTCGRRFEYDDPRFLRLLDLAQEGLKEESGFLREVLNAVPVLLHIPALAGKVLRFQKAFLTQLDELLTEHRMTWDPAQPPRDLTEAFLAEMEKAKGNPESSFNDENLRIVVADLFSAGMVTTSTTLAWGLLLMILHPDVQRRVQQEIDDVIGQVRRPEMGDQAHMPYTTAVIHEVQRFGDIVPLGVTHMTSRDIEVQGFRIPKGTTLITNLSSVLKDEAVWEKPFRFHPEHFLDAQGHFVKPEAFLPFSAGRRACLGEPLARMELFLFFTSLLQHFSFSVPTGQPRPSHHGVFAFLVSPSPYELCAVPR

[9] = Thermodynamic solubility of the compound in 30 mM phosphate buffer at 10 mM at pH 7 after 2 to 5 days by UV-HPLC analysis; assay type: physicochemical; conditions: read-out: Therm_solubility
[10] = Half life in rat microsomes; assay type: ADME, Microsome
[11] = Half life in human microsomes; assay type: ADME, Microsome
[12] = target: Cytochrome P450 2C19 (Homo sapiens, UniProt P33261); experiment: Inhibition of CYP2C19 (unknown origin); assay type: ADME
Sequence of Cytochrome P450 2C19 (P33261 whole entry): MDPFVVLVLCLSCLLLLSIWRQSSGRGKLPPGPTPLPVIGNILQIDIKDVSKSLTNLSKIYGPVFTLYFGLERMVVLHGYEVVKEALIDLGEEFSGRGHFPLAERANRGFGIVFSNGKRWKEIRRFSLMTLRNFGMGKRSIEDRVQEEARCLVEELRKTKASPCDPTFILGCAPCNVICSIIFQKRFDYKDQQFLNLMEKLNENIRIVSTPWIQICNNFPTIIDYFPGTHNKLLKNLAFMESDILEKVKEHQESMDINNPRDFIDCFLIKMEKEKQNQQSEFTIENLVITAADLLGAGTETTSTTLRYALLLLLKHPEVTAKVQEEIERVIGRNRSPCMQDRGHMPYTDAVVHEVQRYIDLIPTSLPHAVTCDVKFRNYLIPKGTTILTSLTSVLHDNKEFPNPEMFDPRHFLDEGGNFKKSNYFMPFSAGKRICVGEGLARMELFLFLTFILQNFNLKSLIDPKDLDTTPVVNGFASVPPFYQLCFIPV

| Compound | Emax at 16 h, 1 µM [1] | Emax at 16 h, 5 µM [2] | also measured |
| --- | --- | --- | --- |
| CC[C@H](NC(=O)c1cc(-c2sc(C(=O)N[C@H]3C[C@H](C(=O)O)C3)nc2CC2CCCCC2)cc(C2(C)CC2)c1)C(F)(F)F | 32% | 71% | – |
| CC(C)(CCF)NS(=O)(=O)c1ccc(-c2sc(C(=O)N[C@H]3C[C@H](C(=O)O)C3)nc2CC2CCCCC2)c2ccccc12 | 91% | 117% | – |
| CC(C)(C)NS(=O)(=O)c1ccc(-c2sc(C(=O)NC34CC(C(=O)O)(C3)C4)nc2CC2CCCCC2)c2ccccc12 | 69% | – | Emax at 16 h, 10 µM [3]: 116% |
| CCS(=O)(=O)c1ccc(CNC(=O)c2nc(CC3CCCCC3)c(-c3ccc(S(=O)(=O)NC(C)(C)C)c4ccccc34)s2)cc1 | 26% | – | Emax at 16 h, 10 µM [3]: 94% |
| C[C@H](NC(=O)c1cc(-c2sc(C(=O)N[C@H]3C[C@H](C(=O)O)C3)nc2CC2CCCCC2)cc(C(C)(C)C)c1)C(F)(F)F | 29% | 59% | – |
| C[C@H](NC(=O)c1cc(-c2sc(C(=O)N[C@H]3C[C@H](C(=O)O)C3)nc2CC2CCCCC2)cc(C2(C)CC2)c1)C(F)(F)F | 26% | – | INH [4]: > 10 µM; INH [5]: > 10 µM; INH [6]: > 10 µM; INH [7]: > 10 µM; INH [8]: > 10 µM; solubility thermodynamic at 10000 µM [9]: 17 µM (≈ 10.1 µg/mL); half-life [10]: 150 min; Emax at 16 h, 10 µM [3]: 94%; half-life [11]: > 180 min; INH [12]: > 10 µM |
| CC(C)(O)CNC(=O)c1nc(CC2CCCCC2)c(-c2ccc(S(=O)(=O)NC(C)(C)C)c3ccccc23)s1 | 138% | 116% | – |
| CC(C)(C)NS(=O)(=O)c1ccc(-c2sc(C(=O)NC3CS(=O)(=O)C3)nc2CC2CCCCC2)c2ccccc12 | 181% | – | Emax at 16 h, 10 µM [3]: 187% |
| C[C@H](NS(=O)(=O)c1ccc(-c2sc(C(=O)NCC(C)(C)O)nc2CC2CC(F)(F)C2)c2ccccc12)C(F)(F)F | 71% | 80% | – |
| CCC(C)(C)NS(=O)(=O)c1ccc(-c2sc(C(=O)N[C@H]3C[C@H](C(=O)O)C3)nc2CC2CCCCC2)c2ccccc12 | 116% | 158% | – |
| CC(C)(C)NC(=O)c1cc(-c2sc(C(=O)N[C@H]3C[C@H](C(=O)O)C3)nc2CC2CCCCC2)cc(C2(C)CC2)c1 | 11% | – | Emax at 16 h, 10 µM [3]: 53% |
| CC(C)(C)NS(=O)(=O)c1ccc(-c2sc(C(=O)NCC(C)(C)C(N)=O)nc2CC2CCCCC2)c2ccccc12 | 110% | 142% | – |
| C[C@H](NS(=O)(=O)c1ccc(-c2sc(C(=O)NCC(C)(C)O)nc2Cc2ccc(F)cc2)c(Cl)c1Cl)C(F)(F)F | 80% | 134% | – |
| CC(C)(C)NS(=O)(=O)c1ccc(-c2sc(C(=O)NCC3CS(=O)(=O)C3)nc2CC2CCCCC2)c2ccccc12 | 140% | 147% | – |
| CC(C)(O)CNC(=O)c1nc(CC2CCCCC2)c(-c2cnc(S(=O)(=O)NC(C)(C)C)c3ccccc23)s1 | – | – | INH [4]: 1.1 µM; INH [5]: > 10 µM; INH [6]: > 10 µM; INH [7]: > 10 µM; INH [8]: > 10 µM; solubility thermodynamic at 10000 µM [9]: < 4 µM; half-life [10]: 5.2 min; half-life [11]: 23 min; INH [12]: 7.6 µM |
| C[C@H](NS(=O)(=O)c1ccc(-c2sc(C(=O)N[C@H]3C[C@H](C(=O)O)C3)nc2CC2CCC2)c2ccccc12)C(F)(F)F | 40% | 118% | – |
| CC(C)(C)NS(=O)(=O)c1ccc(-c2sc(C(=O)NC3CCOCC3)nc2CC2CCCCC2)c2ccccc12 | 181% | – | Emax at 16 h, 10 µM [3]: 206% |
| CC(C)(C)NS(=O)(=O)c1ccc(-c2sc(C(=O)N[C@H]3C[C@H](C(=O)O)C3)nc2CC2CCCCC2)c(Cl)c1Cl | 16% | – | Emax at 16 h, 10 µM [3]: 23% |
| CC(C)(C)NS(=O)(=O)c1ccc(-c2sc(C(=O)NC3CCS(=O)(=O)CC3)nc2C(C)(C)C)c2ccccc12 | 66% | 112% | – |
| C[C@H](NS(=O)(=O)c1ccc(-c2sc(C(=O)N3CC4(C3)CS(=O)(=O)C4)nc2CC2CCC2)c(Cl)c1Cl)C(F)(F)F | 56% | 106% | – |
| CC(C)(C)NS(=O)(=O)c1ccc(-c2sc(C(=O)N3CC4(CCS(=O)(=O)CC4)C3)nc2CC2CCCCC2)c2ccccc12 | 116% | – | Emax at 16 h, 10 µM [3]: 128% |
| CC(C)(CCO)NS(=O)(=O)c1ccc(-c2sc(C(=O)N[C@H]3C[C@H](C(=O)O)C3)nc2CC2CCCCC2)c2ccccc12 | 15% | 53% | – |
| CC(C)(O)CNC(=O)c1nc(CC2CCCCC2)c(-c2ccc(S(=O)(=O)NC(C)(C)C)c(Cl)c2C(F)F)s1 | – | – | INH [4]: 0.4 µM; INH [5]: > 10 µM; INH [6]: 6.9 µM; INH [7]: 4.6 µM; INH [8]: > 10 µM; half-life [10]: 14 min; half-life [11]: 18 min; INH [12]: 5.6 µM |
| C[C@H](NS(=O)(=O)c1ccc(-c2sc(C(=O)NCC(C)(C)O)nc2COC(C)(C)C)c(Cl)c1Cl)C(F)(F)F | 61% | 117% | INH [4]: 1.7 µM; INH [6]: > 10 µM; INH [7]: > 10 µM; INH [8]: > 10 µM; solubility thermodynamic at 10000 µM [9]: 12 µM (≈ 7.28 µg/mL); half-life [10]: > 180 min; half-life [11]: > 180 min; INH [12]: 6.5 µM |
| C[C@H](NC(=O)c1cc(-c2sc(C(=O)N[C@H]3C[C@H](C(=O)O)C3)nc2CC2CCCCC2)cc(C2(C#N)CC2)c1)C(F)(F)F | 3.1% | 7.5% | – |
| CC(C)(C)c1cc(-c2sc(C(=O)N[C@H]3C[C@H](C(=O)O)C3)nc2CC2CCCCC2)cc(C(O)(C(F)(F)F)C(F)(F)F)c1 | 41% | 89% | – |
| C[C@H](NS(=O)(=O)c1cc(-c2sc(C(=O)N[C@H]3C[C@H](C(=O)O)C3)nc2CC2CCCCC2)cc(C(C)(C)C)c1)C(F)(F)F | 157% | 159% | – |
